Results as given in patent US20190350964A1, “ANTI-CANCER COMPOUNDS AND USES THEREOF” (NATIONAL UNIVERSITY OF SINGAPORE, priority 2016, published 2019).

Experiments:
RPE-1/hTert = test: MTT cytotoxicity test (GI50); type: cell-based; conditions: Homo sapiens, normal, retina, MTT 72 h
HGC27 = test: MTT cytotoxicity test (GI50); type: cell-based; conditions: Homo sapiens, HGC-27; HGC27, cancer, gastric; MTT 72 h
SNU620 = test: MTT cytotoxicity test (GI50); type: cell-based; conditions: Homo sapiens; SNU620, cancer, gastric; MTT 72 h
SNU1 = test: MTT cytotoxicity test (GI50); type: cell-based; conditions: Homo sapiens; SNU1, cancer, gastric; MTT 72 h
SNU-16 = test: MTT cytotoxicity test (GI50); type: cell-based; conditions: Homo sapiens; SNU-16, cancer, gastric; MTT 72 h
Hep3 = test: MTT cytotoxicity test (GI50); type: cell-based; conditions: Homo sapiens; Hep3, cancer, liver; MTT 72 h
Huh7 = test: MTT cytotoxicity test (GI50); type: cell-based; conditions: Homo sapiens, Huh-7; Huh7, cancer, liver; MTT 72 h
MCF7 = test: MTT cytotoxicity test (GI50); type: cell-based; conditions: Homo sapiens; MCF7, cancer, breast; MTT 72 h
PI5P4Ks = test: Cellular PI5P4Ks activity assay in HeLa cells (PIP4KII Activity Assay Kit); type: cell-based, human; conditions: HeLa cells treated 24 h, lysate assayed with PI(5)P; read-out: IC50, combined cellular PI5P4Ks
Procedure: HeLa cells were treated with DMSO or compounds for 24 h. Cells were lysed with RIPA buffer (Sigma-Aldrich), and total protein concentrations were measured using a bicinchoninic acid protein assay kit (Thermo Scientific). Next, 10 μg of cell lysate was incubated with 1 μM PI(5)P and 500 nM ATP for 1 h at 37° C. PI5P4K activity was measured by recording luminescent signals (Tecan) using a PIP4KII Activity Assay Kit (Echelon) according to the manufacturer's instructions. For cell-free PI5P4Kα activity assays, serial dilutions of compounds were pre-incubated with 1 ng of PI5P4Kα (kind gift from Daiichi Sankyo Co., Ltd. and Daiichi Sankyo RD Novare Co., Ltd.) in reaction buffer [50 mM HEPES (pH 7.0), 13 mM MgCl2, 0.005% CHAPS, 0.01% BSA, 2.5 mM DTT] for 1 h at 25° C. DOPS (80 μM, Avanti polar lipids), PI(5)P (20 μM, Echelon) and ATP (10 μM, Sigma-Aldrich) were added and further incubated for 90 min at room temperature. PI5P4Kα activity was measured by recording luminescent signals (Tecan) using an ADP-Glo Kinase Assay (Promega) according to the manufacturer's protocol.

[1] = target: T1, Isoform 2 of Ferrochelatase, mitochondrial (Homo sapiens, UniProt P22830); test: MS-CETSA in normal BJ cell lysates; type: binding; conditions: Uniprot P22830-2, lysate, 100 μM compound
T1 construct: After collecting data covering >8,000 proteins in lysates of normal BJ cells; endogenous in cells; host or cells: normal BJ cells (hTert-immortalised human foreskin fibroblasts), lysate
T1 sequence (P22830 55-429 isoform P22830-2 limits assumed): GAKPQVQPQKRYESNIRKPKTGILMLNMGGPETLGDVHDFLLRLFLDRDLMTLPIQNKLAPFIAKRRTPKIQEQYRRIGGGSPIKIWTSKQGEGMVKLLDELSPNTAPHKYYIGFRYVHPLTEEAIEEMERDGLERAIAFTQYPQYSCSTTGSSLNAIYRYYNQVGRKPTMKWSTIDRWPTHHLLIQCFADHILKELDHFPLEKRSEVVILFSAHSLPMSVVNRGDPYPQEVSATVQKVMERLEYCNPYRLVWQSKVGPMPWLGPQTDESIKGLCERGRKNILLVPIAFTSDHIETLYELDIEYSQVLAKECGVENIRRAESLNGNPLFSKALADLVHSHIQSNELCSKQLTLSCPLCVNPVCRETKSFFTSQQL
Procedure: (§1) Target identification was performed by cellular thermal shift assay (CETSA) coupled with quantitative mass spectrometry. In brief, normal BJ cells were lysed by combination of freeze/thaw and mechanical shearing with needle in buffer [50 mM HEPES (pH 7.5), 5 mM β-glycerophosphate, 0.1 mM Sodium Vanadate, 10 mM MgCl2, 1 mM TCEP and 1× Protease inhibitor Cocktail]. The cell debris was removed by centrifugation at 20,000 g for 20 min at 4° C. […] Each lysate was divided into 10 aliquots for heat treatment at the respective temperatures for 3 min in a 96-well thermocycler, followed by 3 min at 4° C. The lysate was centrifuged at 20,000 g for 20 min at 4° C. and the supernatant was transferred into microtubes for MS sample preparation.
(§2) After lysis, at least 100 μg of the protein (measured with a BCA assay) was subjected to reduction, denaturation and alkylation. Samples were subsequently incubated with sequencing grade LysC (Wako) and trypsin (Promega) for digestion overnight at 37° C. The digested samples were dried using a centrifugal vacuum evaporator, solubilized in 100 mM TEAB. […]
(§3) Proteins for which a low temperature plateau was not present were deleted using a cut off >0.85 for the average reading of the first three temperature points (in our experience proteins melting already at −37° C. are more prone to give false positives in a shift analysis).

[2] = target: T2, RNA-binding motif, single-stranded-interacting protein 1 (Homo sapiens, UniProt P29558); test: MS-CETSA in normal BJ cell lysates; conditions: Uniprot B4DN88, lysate, 100 μM compound
T2 construct: After collecting data covering >8,000 proteins in lysates of normal BJ cells; endogenous in cells; host or cells: normal BJ cells, lysate
T2 sequence (P29558 whole entry): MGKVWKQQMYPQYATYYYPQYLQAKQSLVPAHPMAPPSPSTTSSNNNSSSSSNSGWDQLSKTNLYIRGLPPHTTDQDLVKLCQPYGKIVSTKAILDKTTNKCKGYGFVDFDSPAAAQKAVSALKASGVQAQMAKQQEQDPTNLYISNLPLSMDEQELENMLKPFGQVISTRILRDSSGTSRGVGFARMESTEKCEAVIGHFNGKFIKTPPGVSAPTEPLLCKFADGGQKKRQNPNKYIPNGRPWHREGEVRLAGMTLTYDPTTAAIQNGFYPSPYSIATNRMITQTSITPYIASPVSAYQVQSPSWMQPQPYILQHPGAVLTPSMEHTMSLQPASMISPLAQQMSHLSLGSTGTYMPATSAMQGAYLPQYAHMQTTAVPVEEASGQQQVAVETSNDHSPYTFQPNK
Procedure: as §1, §2, §3

[3] = target: T3, MIP18 family protein FAM96A (Homo sapiens, UniProt Q9H5X1); test: MS-CETSA in normal BJ cell lysates; type: binding; conditions: lysate, 100 μM compound
T3 construct: After collecting data covering >8,000 proteins in lysates of normal BJ cells; endogenous in cells; host or cells: normal BJ cells, lysate
T3 sequence (Q9H5X1 whole entry): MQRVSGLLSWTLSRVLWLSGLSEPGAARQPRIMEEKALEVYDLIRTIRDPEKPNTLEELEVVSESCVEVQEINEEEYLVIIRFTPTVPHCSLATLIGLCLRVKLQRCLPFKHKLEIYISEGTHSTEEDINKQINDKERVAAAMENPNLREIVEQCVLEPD
Procedure: as §1, §2, §3

RNA-binding protein 4 = target: T4, RNA-binding protein 4 (Homo sapiens, UniProt Q9BWF3); test: MS-CETSA in normal BJ cell lysates; conditions: lysate, 100 μM compound
T4 construct: After collecting data covering >8,000 proteins in lysates of normal BJ cells; endogenous in cells; host or cells: normal BJ cells, lysate
T4 sequence (Q9BWF3 whole entry): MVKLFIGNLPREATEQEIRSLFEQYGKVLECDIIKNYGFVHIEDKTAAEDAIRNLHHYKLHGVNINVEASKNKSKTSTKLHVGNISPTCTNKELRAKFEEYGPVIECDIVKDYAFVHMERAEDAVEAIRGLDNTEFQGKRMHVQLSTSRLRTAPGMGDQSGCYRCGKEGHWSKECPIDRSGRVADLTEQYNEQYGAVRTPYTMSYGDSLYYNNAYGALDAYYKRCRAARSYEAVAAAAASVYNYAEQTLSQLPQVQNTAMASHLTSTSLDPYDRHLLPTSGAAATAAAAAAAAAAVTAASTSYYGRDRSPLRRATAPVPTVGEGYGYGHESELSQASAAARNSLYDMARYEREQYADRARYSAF
Procedure: as §1, §2, §3

PIK3IP1 = test: qRT-PCR and immunoblot of PIK3IP1 in BJ cells; type: cell-based, human; conditions: 5 μM, 24 h
Procedure: Total RNA was isolated from cultured cells using the RNeasy mini kit (Qiagen). cDNA was synthesized from 1 μg of total RNA using the iScript cDNA synthesis kit (Bio-Rad). qRT-PCR analysis was performed using the iQ SYBR Green Super mix (Bio-Rad) using the following gene-specific primers:
human PI5P4Kα (5′-[…]-3′; SEQ ID NO: 11, 5′-[…]-3′; SEQ ID NO: 12), human PI5P4Kβ (5′-[…]-3′; SEQ ID NO: 13, 5′-[…]-3′; SEQ ID NO: 14), human PI5P4Kγ (5′-[…]-3′; SEQ ID NO: 15, 5′-[…]-3′; SEQ ID NO: 16) and human PIK3IP1 (5′-[…]-3′; SEQ ID NO: 17, 5′-[…]-3′; SEQ ID NO: 18). The TATA-binding protein (TBP) gene was used for normalization. All PCR reactions were performed in triplicate.
Total cell lysates were prepared with 1% triton lysis buffer [25 mM Tris HCl (pH 8.0), 150 mM NaCl, 1% triton-X100, 1 mM dithiothreitol (DTT), protease inhibitor mix (Complete Mini, Roche) and phosphatase inhibitor (PhosphoStop, Roche)] and subjected to SDS-PAGE. […] Where indicated, intensities of protein bands were quantified by densitometry (Odyssey V3.0), normalized to their loading controls and then calculated as fold expression change relative to DMSO control.

N#C/C(=C\c1cccc2cnccc12)c1c[nH]c2ccccc12 [a131, (Z)-2-(1H-indol-3-yl)-3-(5-isoquinolyl)prop-2-enenitrile]
GI50 (RPE-1/hTert): 5200 nM
GI50 (HGC27): 1200 nM
GI50 (SNU620): 1000 nM
GI50 (SNU1): 900 nM
GI50 (SNU-16): 1000 nM
GI50 (Hep3): 3700 nM
GI50 (Huh7): 1200 nM
GI50 (MCF7): 1200 nM
IC50 (PI5P4Ks): 600 nM
ED score [1]: 0.8366
ΔTm at 100 µM ([1]; read-out: mean Delta Tm): 3.81 °C
ED score [2]: 0.3144
ΔTm at 100 µM ([2]; read-out: mean Delta Tm): 2.01 °C
ED score [3]: 0.291
ΔTm at 100 µM ([3]; read-out: mean Delta Tm): 2.17 °C
ED score (RNA-binding protein 4): 0.3323
ΔTm at 100 µM (RNA-binding protein 4; read-out: mean Delta Tm): 1.88 °C
PIK3IP1 mRNA and protein levels (PIK3IP1; normal BJ cells): up-regulation of PIK3IP1 at both the mRNA and protein levels
PIK3IP1 mRNA expression (PIK3IP1; transformed BJ cells): unresponsive
